Entries after “also recorded” stand apart in the source; their conditions may differ.
Tests used:
Aβ42 [1] = molecular target: T1, Aβ42 (Homo sapiens, UniProt P05067); experiment: Grating-Coupled Interferometry (GCI) binding to immobilized Aβ42; conditions: GCI fit quality parameter
Description: The Grating‐Coupled Interferometry (GCI) is a widely used analytical technique for characterizing intermolecular interactions. It allows quantitative measurements of both the affinity and the kinetics of the binding events. This high sensitivity label‐free method was exploited to measure the interactions of Aβ42 with Cu‐Ph‐Pep , Ph‐Pep , and Zn‐Ph‐Pep (Figure 5S). Control experiments with pristine MCPTPyP and the peptide GPGKLVFF ( Pep ) were carried out for comparison. The calculated association and dissociation kinetic constants (kon and koff, respectively) and the thermodynamic binding constant (KD), are summarized in Table 1. The obtained values indicate that all the conjugates show good affinities with Aβ42. It is also clear from Table 1 that the peptide moiety is fundamental for the molecular recognition of the Aβ42 peptide.[48] […] Nevertheless, it is important to emphasize that the interaction with Aβ42 is primarily mediated by the peptide rather than by the porphyrin macrocycle. We next investigated whether these peptide derivatives could be employed as molecular probes for the detection of Aβ42 aggregated species. A new set of CD experiments was then carried out with Aβ42 at 20 μM both in the absence and in the presence of the porphyrin‐peptide conjugates at 1 : 1 molar ratio in the UV (195–350) and Visible (350–500) regions. […] The signal rapidly evolved toward the typical β‐sheet profile (already within 24 h) with a single minimum at 216 nm, an x‐axis intercept at 202 nm and a maximum shift at a wavelength 195 nm.[49] […] For the sake of comparison, the CD spectra of the porphyrin‐peptide conjugates at 20 μM were also recorded in the same experimental conditions, both in the far‐UV and Visible regions (Figure 6S).
The experiments were performed on a Creoptix WAVE system (Creoptix). Borate buffer (100 mM sodium borate pH 9.0, 1 M NaCl) was used for chip conditioning. Aβ42 peptide (20 μg/ml in Na Acetate pH 4.5) was immobilized on 4PCH WAVE chips (quasiplanar polycarboxylate surface; Creoptix) according to the manufacturer instructions at a final density of 1910±40 pg/mm^2. Single‐cycle sequential injections of dilution series for each Porphyrin‐Peptide conjugates in running buffer (PBS, 0.005 % Tween 20, 1 % DMSO, 0.2 mg/ml BSA) were performed at 25 °C, using a flow rate of 100 μl/min. In details, for the conjugate Cu‐Ph‐Pep , 1 : 2 dilution series starting from 200 μM were injected for 10 s association time, 45 s dissociation time, followed by a dissociation time of 600 s for the last higher concentration injection. Finally, for the conjugates Ph‐Pep and Zn‐Ph‐Pep , 1 : 2 dilution series starting from 50 μM and 100 uM, respectively, were injected for 30 s association time, 45 s dissociation time, followed by a dissociation time of 600 s for the last higher concentration injection. Blank injections were used for double referencing and a DMSO calibration curve for bulk correction. Analysis and correction of the obtained data were performed using the Creoptix WAVE control software (correction applied: X and Y offset; DMSO calibration; double referencing). Mass transport binding models with bulk correction were used to fit all experiments. All the experiments have been performed at least in triplicate.
Figure 5S. Quantitative binding kinetics of Aβ42 vs a) MCPTPyP; b) Cu-Ph-Pep; c) Ph-Pep; d) Zn-Ph-Pep; and e) Pep measured by GCI. All curves were blank subtracted. Experiments were performed in triplicate. All the quality assessments (i.e., χ2 shown in Table 1 of the main text , parameter errors, and residual plots were acceptable; the sensorgrams had sufficient curvatures an d the kinetic constant k off were within the measurable range) were fulfilled. Descriptive Statistical Analysis was employed to calculate the mean of the obtained values of k on, koff and KD as a measure of central tendency and standard deviations of the former values were computed as a measure of dispersion.
Figure 6S. […]

Aβ42 [2] = molecular target: T1, Aβ42; experiment: Sensing: induced CD in porphyrin Soret region with Aβ42; format: binding; conditions: Aβ42 20 μM, 1:1, 350–500 nm, 10 mM phosphate buffer pH 7.4
Description: The Grating‐Coupled Interferometry (GCI) is a widely used analytical technique for characterizing intermolecular interactions. It allows quantitative measurements of both the affinity and the kinetics of the binding events. This high sensitivity label‐free method was exploited to measure the interactions of Aβ42 with Cu‐Ph‐Pep , Ph‐Pep , and Zn‐Ph‐Pep (Figure 5S). Control experiments with pristine MCPTPyP and the peptide GPGKLVFF ( Pep ) were carried out for comparison. The calculated association and dissociation kinetic constants (kon and koff, respectively) and the thermodynamic binding constant (KD), are summarized in Table 1. The obtained values indicate that all the conjugates show good affinities with Aβ42. It is also clear from Table 1 that the peptide moiety is fundamental for the molecular recognition of the Aβ42 peptide.[48] […] For the sake of comparison, the CD spectra of the porphyrin‐peptide conjugates at 20 μM were also recorded in the same experimental conditions, both in the far‐UV and Visible regions (Figure 6S).
Spectra were recorded on a J‐810 spectrometer (Jasco, Japan) under a constant flow of N2 at room temperature. […] All aggregation kinetics were monitored up to 120 hours. The CD spectra were recorded for Aβ42 (5 μM and 20 μM) monomer in the absence or in the presence of porphyrin‐peptide conjugates (5 μM and 20 μM for the 1 : 1 molar ratios). […]

Aβ8–20 = experiment: CD of conjugate with Aβ8–20 fragment; format: binding
Description: To better visualize how the induced signal increases as Aβ42 adopts the β‐sheet conformation, a comparative graph displaying the absolute value of the CD intensities at the maximum absorption wavelength for each derivative, either in the presence or absence of Aβ42 over the same time interval, is reported in the SI (Figure 7S). […] (Figure 8S panel a). […] We assume that the conjugate Zn‐Ph‐Pep conjugate could similarly interact with the Aβ8–20 fragment.
Spectra were recorded on a J‐810 spectrometer (Jasco, Japan) under a constant flow of N2 at room temperature. The CD measurements were performed in the wavelength regions (190–260 nm, 195–350 nm and 350–500 nm) using a 1 cm path length quartz cell. All aggregation kinetics were monitored up to 120 hours. The CD spectra were recorded for Aβ42 (5 μM and 20 μM) monomer in the absence or in the presence of porphyrin‐peptide conjugates (5 μM and 20 μM for the 1 : 1 molar ratios). Monomerized samples of Aβ42 (5 μM and 20 μM) were solubilized in 50 μL of NaOH 20 mM (2,5 %) and after were diluted with 1950 μL of 10 mM phosphate buffer at pH 7.4 pure or containing the solubilized conjugates.

T1 sequence (P05067 672-713 limits assumed): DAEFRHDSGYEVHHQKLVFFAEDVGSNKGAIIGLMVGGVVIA

COC(=O)[C@H](Cc1cn(CCCC[C@H](NC(=O)CNC(C)=O)C(=O)N2CCC[C@H]2C(=O)NCC(=O)N[C@@H](CCCCN)C(=O)N[C@@H](CC(C)C)C(=O)N[C@H](C(=O)N[C@@H](Cc2ccccc2)C(=O)N[C@@H](Cc2ccccc2)C(N)=O)C(C)C)nn1)NC(=O)c1ccc(-c2c3nc(c(-c4cc[n+](C)cc4)c4ccc([nH]4)c(-c4cc[n+](C)cc4)c4nc(c(-c5cc[n+](C)cc5)c5ccc2[nH]5)C=C4)C=C3)cc1 [Zn‐Ph‐Pep]
χ^2 (average of the squared residuals, fitting confidence) (Aβ42 [1]): 0.49±0.09 | induced CD signal in Soret region with Aβ42 (Aβ42 [2]): induced dichroic signal; also recorded: generates a distinct CD signal | conformation of Aβ8–20/conjugate mixture (Aβ8–20; Far-UV CD): significant amount of random coil conformation | induced CD signal in visible region with Aβ8–20 (Aβ8–20; same experimental conditions as with Aβ42): no induced CD signal is clearly detectable

— publication PMC11610669, “A Spectroscopic Study on the Amyloid‐β Interaction with Clicked Peptide‐Porphyrin Conjugates: a Vision Toward the Detection of Aβ Peptides in Aqueous Solution” (Chembiochem, 2024)
